Results from PubChem BioAssay AID1918958 (Molecular Pharmacology Branch, DTP, NCI, 2023).

Tested on: NCI-H196 complex spheroid viability
Experiment: Anticancer human tumor NCI-H196 cell line growth inhibition [LSD1];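 also: spheroids exposed to agents for 7 days before readout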;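 as to viability, T/C: 100% = DMSO vehicle control viability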
Conditions: for IC50: curve of first compound; for viability, T/C: stronger effect = lower value
Summary of the method: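 Multicellular complex spheroids of tumor cells with human endothelial cells (HUVEC) and mesenchymal stem cells; the LSD1 inhibitor iadademstat was combined with standard-of-care or investigational agents. Top concentration at or near clinical Cmax, half-log dilutions; final DMSO ≤0.25%.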

[1] = second compound 0.1 µM, first compound 0.0316 µM
[2] = second compound 0.1 µM, first compound 0.1 µM
[3] = second compound 0.316 µM, first compound 0.0316 µM
[4] = second compound 0.316 µM, first compound 0.1 µM
[5] = second compound 1 µM, first compound 0.0316 µM
[6] = second compound 1 µM, first compound 0.1 µM
[7] = second compound 3.16 µM, first compound 0.0316 µM
[8] = second compound 3.16 µM, first compound 0.1 µM
[9] = second compound 10 µM, first compound 0.0316 µM
[10] = second compound 10 µM, first compound 0.1 µM

SMILES: CC1(C)CCC(CN2CCN(c3ccc(C(=O)NS(=O)(=O)c4ccc(NCC5CCOCC5)c([N+](=O)[O-])c4)c(Oc4cnc5[nH]ccc5c4)c3)CC2)=C(c2ccc(Cl)cc2)C1 + NC1CC1c1ccc(-c2cccc(O)c2)cc1
- IC50 (second compound 0.1 µM): 5.68 µM
- IC50 (second compound 0.316 µM): 5.2 µM
- IC50 (second compound 1 µM): 5.54 µM
- IC50 (second compound 3.16 µM): 5.49 µM
- IC50 (second compound 10 µM): 4.93 µM
- viability, T/C [1]: 91.2%
- viability, T/C [2]: 99.9%
- viability, T/C (second compound 0.1 µM, first compound 0.316 µM): 99%
- viability, T/C (second compound 0.1 µM, first compound 1 µM): 84.2%
- viability, T/C (second compound 0.1 µM, first compound 3.16 µM): 85.7%
- viability, T/C (second compound 0.1 µM, first compound 10 µM): 16.9%
- viability, T/C [3]: 98.6%
- viability, T/C [4]: 101%
- viability, T/C (second compound 0.316 µM, first compound 0.316 µM): 87.1%
- viability, T/C (second compound 0.316 µM, first compound 1 µM): 84%
- viability, T/C (second compound 0.316 µM, first compound 3.16 µM): 79.2%
- viability, T/C (second compound 0.316 µM, first compound 10 µM): 16.1%
- viability, T/C [5]: 94.3%
- viability, T/C [6]: 97.4%
- viability, T/C (second compound 1 µM, first compound 0.316 µM): 95.6%
- viability, T/C (second compound 1 µM, first compound 1 µM): 95.7%
- viability, T/C (second compound 1 µM, first compound 3.16 µM): 79.2%
- viability, T/C (second compound 1 µM, first compound 10 µM): 19%
- viability, T/C [7]: 96.5%
- viability, T/C [8]: 105%
- viability, T/C (second compound 3.16 µM, first compound 0.316 µM): 101%
- viability, T/C (second compound 3.16 µM, first compound 1 µM): 84.8%
- viability, T/C (second compound 3.16 µM, first compound 3.16 µM): 80.6%
- viability, T/C (second compound 3.16 µM, first compound 10 µM): 20%
- viability, T/C [9]: 94.9%
- viability, T/C [10]: 95.6%
- viability, T/C (second compound 10 µM, first compound 0.316 µM): 97.3%
- viability, T/C (second compound 10 µM, first compound 1 µM): 92.1%
- viability, T/C (second compound 10 µM, first compound 3.16 µM): 72.5%
- viability, T/C (second compound 10 µM, first compound 10 µM): 14.2%

SMILES: Cn1ncnc1C1c2n[nH]c(=O)c3cc(F)cc(c23)NC1c1ccc(F)cc1 (stereo not given) + NC1CC1c1ccc(-c2cccc(O)c2)cc1
- IC50 (second compound 0.1 µM): > 0.1 µM
- IC50 (second compound 0.316 µM): > 0.1 µM
- IC50 (second compound 1 µM): > 0.1 µM
- IC50 (second compound 3.16 µM): > 0.1 µM
- IC50 (second compound 10 µM): > 0.1 µM
- viability, T/C (second compound 0.1 µM, first compound 0.000316 µM): 96.6%
- viability, T/C (second compound 0.1 µM, first compound 0.001 µM): 100%
- viability, T/C (second compound 0.1 µM, first compound 0.00316 µM): 102%
- viability, T/C (second compound 0.1 µM, first compound 0.01 µM): 100%
- viability, T/C [1]: 94.3%
- viability, T/C [2]: 98.3%
- viability, T/C (second compound 0.316 µM, first compound 0.000316 µM): 104%
- viability, T/C (second compound 0.316 µM, first compound 0.001 µM): 106%
- viability, T/C (second compound 0.316 µM, first compound 0.00316 µM): 98.2%
- viability, T/C (second compound 0.316 µM, first compound 0.01 µM): 102%
- viability, T/C [3]: 101%
- viability, T/C [4]: 106%
- viability, T/C (second compound 1 µM, first compound 0.000316 µM): 105%
- viability, T/C (second compound 1 µM, first compound 0.001 µM): 98.9%
- viability, T/C (second compound 1 µM, first compound 0.00316 µM): 101%
- viability, T/C (second compound 1 µM, first compound 0.01 µM): 103%
- viability, T/C [5]: 104%
- viability, T/C [6]: 106%
- viability, T/C (second compound 3.16 µM, first compound 0.000316 µM): 92.2%
- viability, T/C (second compound 3.16 µM, first compound 0.001 µM): 99.1%
- viability, T/C (second compound 3.16 µM, first compound 0.00316 µM): 102%
- viability, T/C (second compound 3.16 µM, first compound 0.01 µM): 102%
- viability, T/C [7]: 99.2%
- viability, T/C [8]: 92.4%
- viability, T/C (second compound 10 µM, first compound 0.000316 µM): 99.1%
- viability, T/C (second compound 10 µM, first compound 0.001 µM): 104%
- viability, T/C (second compound 10 µM, first compound 0.00316 µM): 95%
- viability, T/C (second compound 10 µM, first compound 0.01 µM): 104%
- viability, T/C [9]: 97.7%
- viability, T/C [10]: 91.4%

SMILES: NS(=O)(=O)OCC1CC(n2ccc3c(NC4CCc5ccccc54)ncnc32)CC1O (stereo not given) + NC1CC1c1ccc(-c2cccc(O)c2)cc1
- IC50 (second compound 0.1 µM): > 3 µM
- IC50 (second compound 0.316 µM): > 3 µM
- IC50 (second compound 1 µM): > 3 µM
- IC50 (second compound 3.16 µM): > 3 µM
- IC50 (second compound 10 µM): > 3 µM
- viability, T/C (second compound 0.1 µM, first compound 0.00949 µM): 83.6%
- viability, T/C (second compound 0.1 µM, first compound 0.03 µM): 103%
- viability, T/C (second compound 0.1 µM, first compound 0.0949 µM): 68%
- viability, T/C (second compound 0.1 µM, first compound 0.3 µM): 82.2%
- viability, T/C (second compound 0.1 µM, first compound 0.949 µM): 75.1%
- viability, T/C (second compound 0.1 µM, first compound 3 µM): 57.5%
- viability, T/C (second compound 0.316 µM, first compound 0.00949 µM): 77.8%
- viability, T/C (second compound 0.316 µM, first compound 0.03 µM): 99.8%
- viability, T/C (second compound 0.316 µM, first compound 0.0949 µM): 69.7%
- viability, T/C (second compound 0.316 µM, first compound 0.3 µM): 80.5%
- viability, T/C (second compound 0.316 µM, first compound 0.949 µM): 79.7%
- viability, T/C (second compound 0.316 µM, first compound 3 µM): 60.7%
- viability, T/C (second compound 1 µM, first compound 0.00949 µM): 72.3%
- viability, T/C (second compound 1 µM, first compound 0.03 µM): 83.9%
- viability, T/C (second compound 1 µM, first compound 0.0949 µM): 66.2%
- viability, T/C (second compound 1 µM, first compound 0.3 µM): 72%
- viability, T/C (second compound 1 µM, first compound 0.949 µM): 66%
- viability, T/C (second compound 1 µM, first compound 3 µM): 63.6%
- viability, T/C (second compound 3.16 µM, first compound 0.00949 µM): 71.6%
- viability, T/C (second compound 3.16 µM, first compound 0.03 µM): 68.1%
- viability, T/C (second compound 3.16 µM, first compound 0.0949 µM): 64.3%
- viability, T/C (second compound 3.16 µM, first compound 0.3 µM): 68.7%
- viability, T/C (second compound 3.16 µM, first compound 0.949 µM): 56%
- viability, T/C (second compound 3.16 µM, first compound 3 µM): 64.3%
- viability, T/C (second compound 10 µM, first compound 0.00949 µM): 64.4%
- viability, T/C (second compound 10 µM, first compound 0.03 µM): 87.9%
- viability, T/C (second compound 10 µM, first compound 0.0949 µM): 58.6%
- viability, T/C (second compound 10 µM, first compound 0.3 µM): 65.8%
- viability, T/C (second compound 10 µM, first compound 0.949 µM): 63%
- viability, T/C (second compound 10 µM, first compound 3 µM): 57%
